From paper PMC7156458, “Synthetic biology based construction of biological activity-related library of fungal decalin-containing diterpenoid pyrones” (Nature Communications, 2020)
Where two headings read alike, the source gives them in different places.

Columns and labels:
MCF-7 cells = assay: cell cytotoxic effects against MCF-7 cells (72 h), A490; assay type: cell-based, human
[1] = cytotoxicity in Drosophila DL1 cells; assay type: cell-based; settings: Drosophila, DL1 cells (embryonic macrophage-derived), DL1 cells
Description: (§1) We screened the DDPs on the Drosophila assay system for cytotoxicity, inhibitory activity of innate immune signalling and insecticidal activity. The cytotoxicity of the DDPs was evaluated using two cell lines, embryonic macrophage-derived DL1 cells[58]–[60] and larval blood cell-derived l(2)mbn cells, and their IC50 values are listed in Supplementary Table 23.

DL1 cells = assay: cytotoxicity in Drosophila DL1 cells; assay type: cell-based; settings: DL1 cells; for IC50: Drosophila melanogaster, cytotoxicity
Description: as §1

[2] = cytotoxicity in Drosophila l(2)mbn cells; assay type: cell-based; settings: Drosophila, l(2)mbn cells (larval blood cell-derived)
Description: as §1

l(2)mbn cells = assay: cytotoxicity in Drosophila l(2)mbn cells; assay type: cell-based; settings: for Luminescence Raw1: replicate 1; for Luminescence Raw2: replicate 2; for IC50: Drosophila melanogaster, cytotoxicity
Description: as §1

[3] = tested on: human immunodeficiency virus-1 (HIV-1); assay: anti-HIV MAGI assay; assay type: cell-based; settings: Human immunodeficiency virus 1, MAGI, anti-HIV
From the text: We examined the inhibitory activities of DDPs against various species of bacteria (both gram-negative and gram-positive bacteria), fungi and viruses. […] In contrast, preliminary screening of the DDPs for anti-viral agents with hepatitis B virus (HBV), measles virus (MV), Epstein-Barr virus (EBV), herpes simplex virus (HSV) and human immunodeficiency virus-1 (HIV-1) indicated their selective inhibition of HIV.

MAGI cells = assay: cytotoxicity in the anti-HIV assay (CC50); assay type: cell-based; settings: single determinations
[4] = replicate 1, relative to DMSO 1%, read-out: % viability, viability 1
[5] = replicate 2, relative to DMSO 1%, read-out: % viability, viability 2
[6] = average of two replicates, read-out: IC50 Average
[7] = replicate 1, read-out: IC50 (1)
[8] = replicate 2, read-out: IC50 (2)

SMILES: C=C1CC[C@H]2[C@]3(C)C[C@H](C=C(C)C)O[C@H]3CC[C@]2(C)[C@@H]1Cc1c(OC)oc(CO)c(C)c1=O [Compound 18]
- cytotoxicity against the bulk of MCF-7 cells (MCF-7 cells): dose-dependent cytotoxicity
- viability at 0.1 µM (MCF-7 cells; Homo sapiens, MCF7, 72 h, MCF-7, 72 h, 0.1 µM (DMSO 0.002%), read-out: A490 (control =1) ave): 65.7%
- viability at 1 µM (MCF-7 cells; Homo sapiens, MCF7, 72 h, MCF-7, 72 h, 1 µM (DMSO 0.02%), read-out: A490 (control =1) ave): 26.3%
- viability at 10 µM (MCF-7 cells; Homo sapiens, MCF7, 72 h, MCF-7, 72 h, 10 µM (DMSO 0.2%), read-out: A490 (control =1) ave): 15%
- A490 ave (MCF-7 cells; MCF-7, 72 h, 0.1 µM (DMSO 0.002%), control 1.064): 0.699
- A490 ave (MCF-7 cells; MCF-7, 72 h, 1 µM (DMSO 0.02%), control 1.104): 0.290
- A490 ave (MCF-7 cells; MCF-7, 72 h, 10 µM (DMSO 0.2%), control 1.049): 0.158
- viability at 0.04 µM [1, 4]: 95.6%
- viability at 0.04 µM [1, 5]: 92.1%
- viability at 0.2 µM [1, 4]: 56.9%
- viability at 0.2 µM [1, 5]: 64.1%
- viability at 1 µM [1, 4]: 7.49%
- viability at 1 µM [1, 5]: 7.12%
- viability at 4 µM [1, 4]: 4.95%
- viability at 4 µM [1, 5]: 5.08%
- viability at 10 µM [1, 4]: 5.18%
- viability at 10 µM [1, 5]: 6.3%
- viability at 20 µM [1, 4]: 3.9%
- viability at 20 µM [1, 5]: 5.16%
- Luminescence Raw1 (DL1 cells; 0.04 µM, replicate 1): 1968545
- Luminescence Raw2 (DL1 cells; 0.04 µM, replicate 2): 1896774
- Luminescence Raw1 (DL1 cells; 0.2 µM, replicate 1): 1171179
- Luminescence Raw2 (DL1 cells; 0.2 µM, replicate 2): 1320836
- Luminescence Raw1 (DL1 cells; 1 µM, replicate 1): 154319
- Luminescence Raw2 (DL1 cells; 1 µM, replicate 2): 146747
- Luminescence Raw1 (DL1 cells; 4 µM, replicate 1): 102038
- Luminescence Raw2 (DL1 cells; 4 µM, replicate 2): 104562
- Luminescence Raw1 (DL1 cells; 10 µM, replicate 1): 106725
- Luminescence Raw2 (DL1 cells; 10 µM, replicate 2): 129801
- Luminescence Raw1 (DL1 cells; 20 µM, replicate 1): 80404
- Luminescence Raw2 (DL1 cells; 20 µM, replicate 2): 106364
- IC50 (DL1 cells; [6]): 254 nM
- IC50 (DL1 cells; average±SEM, read-out: IC50): 250 ± 20 nM
- IC50 (DL1 cells; [7]): 236 nM
- IC50 (DL1 cells; [8]): 272 nM
- viability at 0.04 µM [2, 4]: 116%
- viability at 0.04 µM [2, 5]: 96.2%
- viability at 0.2 µM [2, 4]: 131%
- viability at 0.2 µM [2, 5]: 115%
- viability at 1 µM [2, 4]: 108%
- viability at 1 µM [2, 5]: 131%
- viability at 4 µM [2, 4]: 64.8%
- viability at 4 µM [2, 5]: 91.8%
- viability at 10 µM [2, 4]: 7.4%
- viability at 10 µM [2, 5]: 8.02%
- viability at 20 µM [2, 4]: 9.23%
- viability at 20 µM [2, 5]: 8.3%
- Luminescence Raw1 (l(2)mbn cells; 0.04 µM): 2968023
- Luminescence Raw2 (l(2)mbn cells; 0.04 µM): 2468099
- Luminescence Raw1 (l(2)mbn cells; 0.2 µM): 3357960
- Luminescence Raw2 (l(2)mbn cells; 0.2 µM): 2956480
- Luminescence Raw1 (l(2)mbn cells; 1 µM): 2768193
- Luminescence Raw2 (l(2)mbn cells; 1 µM): 3359403
- Luminescence Raw1 (l(2)mbn cells; 4 µM): 1663102
- Luminescence Raw2 (l(2)mbn cells; 4 µM): 2355206
- Luminescence Raw1 (l(2)mbn cells; 10 µM): 190041
- Luminescence Raw2 (l(2)mbn cells; 10 µM): 205906
- Luminescence Raw1 (l(2)mbn cells; 20 µM): 236915
- Luminescence Raw2 (l(2)mbn cells; 20 µM): 213117
- IC50 (l(2)mbn cells; [6]): 6000 nM
- IC50 (l(2)mbn cells; average±SEM, read-out: IC50): 6000 ± 1090 nM
- IC50 (l(2)mbn cells; [7]): 4920 nM
- IC50 (l(2)mbn cells; [8]): 7090 nM
- EC50 ([3]; MAGI assay, read-out: EC50): < 200 nM
- EC50 ([3]; average of numeric determinations, read-out: Avg. EC50): 644 nM
- Cytotoxicity (MAGI cells): >10 µM
